How the values were obtained:
Cannabinoid receptor 1 = Cannabinoid receptor 1 (Homo sapiens, UniProt P21554); test: Binding affinity to CB1 receptor
Cannabinoid receptor 2 = Cannabinoid receptor 2 (Homo sapiens, UniProt P34972); test: Binding affinity to CB2 receptor
Cannabinoid receptor 2, sequence (P34972 whole entry): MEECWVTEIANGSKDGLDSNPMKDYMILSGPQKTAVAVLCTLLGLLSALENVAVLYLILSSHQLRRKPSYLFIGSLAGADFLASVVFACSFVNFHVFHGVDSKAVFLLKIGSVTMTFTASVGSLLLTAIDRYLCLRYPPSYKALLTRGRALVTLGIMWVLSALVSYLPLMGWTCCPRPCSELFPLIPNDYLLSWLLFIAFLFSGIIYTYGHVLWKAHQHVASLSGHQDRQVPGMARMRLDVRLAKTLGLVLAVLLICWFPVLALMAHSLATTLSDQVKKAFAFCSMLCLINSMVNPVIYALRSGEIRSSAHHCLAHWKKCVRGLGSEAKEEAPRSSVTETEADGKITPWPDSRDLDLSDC

Cannabinoid receptor 1, sequence (P21554 whole entry): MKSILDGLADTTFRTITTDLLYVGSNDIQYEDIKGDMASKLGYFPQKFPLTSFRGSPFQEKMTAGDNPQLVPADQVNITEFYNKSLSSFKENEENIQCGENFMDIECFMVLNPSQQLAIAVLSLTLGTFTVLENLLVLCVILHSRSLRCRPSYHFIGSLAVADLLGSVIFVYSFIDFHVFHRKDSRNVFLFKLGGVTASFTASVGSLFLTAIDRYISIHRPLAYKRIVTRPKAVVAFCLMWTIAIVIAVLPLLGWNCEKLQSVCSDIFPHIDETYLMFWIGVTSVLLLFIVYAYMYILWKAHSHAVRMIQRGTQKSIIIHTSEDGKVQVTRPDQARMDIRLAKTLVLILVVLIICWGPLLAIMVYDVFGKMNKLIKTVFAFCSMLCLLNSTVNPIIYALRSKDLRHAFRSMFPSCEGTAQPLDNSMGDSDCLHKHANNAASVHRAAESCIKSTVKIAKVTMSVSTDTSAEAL

Structure (SMILES) | Ki (Cannabinoid receptor 1) [nM] | Ki (Cannabinoid receptor 2) [nM]
CC1=CC[C@@H]2[C@@H](C1)c1c(O)cc(CC3C4CC5CC(C4)CC3C5)cc1OC2(C)C (stereo not given in full) | 79.7 | 76
CC1=CC[C@@H]2[C@@H](C1)c1c(O)cc(C=C3C4CC5CC(C4)CC3C5)cc1OC2(C)C | 48.6 | 8.9
CC(=O)Nc1cccc(C(C)(C)c2cc(O)c3c(c2)OC(C)(C)[C@@H]2CC=C(C)C[C@@H]32)c1 | 13.7 | 13.6
CC1=CC[C@@H]2[C@@H](C1)c1c(O)cc(C3C4CC5CC(C4)CC3C5)cc1OC2(C)C (stereo not given in full) | 34.9 | 14
CC1=CC[C@@H]2[C@@H](C1)c1c(O)cc(CC34CC5CC(CC(C5)C3)C4)cc1OC2(C)C | 29.3 | 26.9

From ChEMBL document CHEMBL1153934, “Quantitative structure-activity relationship (QSAR) for a series of novel cannabinoid derivatives using descriptors derived from semi-empirical quantum-chemical calculations” (Bioorg Med Chem, 2009)
